The text below walks through data of ChEMBL document CHEMBL1154002, “GPR109a agonists. Part 1: 5-Alkyl and 5-aryl-pyrazole-tetrazoles as agonists of the human orphan G-protein coupled receptor GPR109a” (Bioorg Med Chem Lett, 2009).

One may read the bioavailability as dose-corrected exposure relative to a reference, in per cent. By half-life is commonly meant the time in which the quantity being followed falls by half.

A short description of series [1]: Bioavailability in C57BL/6 mouse at 1 mg/kg, iv and 2 mg/kg, po. The settings on record: in vivo. It is filed as ADME, organism-based.
Series [2] is described as follows: Plasma clearance in C57BL/6 mouse at 1 mg/kg, iv and 2 mg/kg, po. It is filed as ADME, organism-based.
A short description of series [3]: Volume of distribution at steady state in C57BL/6 mouse at 1 mg/kg, iv and 2 mg/kg, po. The following applies: in vivo, read-out: Vdss. In kind it is ADME, organism-based.
Series [4] in a line: Plasma half life in C57BL/6 mouse at 1 mg/kg, iv and 2 mg/kg, po. In kind it is ADME, organism-based.
Series [5] relates to Mus musculus. In words: Reduction in plasma free fatty acid level in C57B1/6 mouse at 10 mg/kg after 15 mins. In kind it is functional. Details: scale not given: the % may be the effect or the level left.
Series [6] concerns Mus musculus. In words: Toxicity in C57B1/6 mouse assessed as cutaneous flushing at 30 mg/kg after 15 mins by laser doppler method. It is filed as organism-based. More on the design: dose 30 mg/kg. The settings on record: in vivo.

For `Fc1cccc(C2Cc3[nH]nc(-c4nnn[nH]4)c3C2)c1` (stereo unspecified), the bioavailability in series [1] stood at 57%. Also, the clearance in series [2] is 47 mL/min/kg. Also, the Vd in series [3] stood at 1.79 L/kg. Also, the half-life in series [4] is 1.8 h.

On to `CCCC1Cc2[nH]nc(-c3nnn[nH]3)c2C1` (stereo unspecified), for which the bioavailability in series [1] is 51%. The clearance in series [2] is 30 mL/min/kg. For the same molecule, in series [3], the Vd stood at 1.55 L/kg. For the same molecule, the half-life in series [4] is 2.9 h.

Take `Fc1cc(F)c(F)c(C2Cc3[nH]nc(-c4nnn[nH]4)c3C2)c1` (stereo in doubt; 9o): the bioavailability in series [1] stood at 10%. In addition, the clearance in series [2] stood at 27 mL/min/kg. Moreover, the Vd in series [3] was 1.1 L/kg. Besides, in series [4], the half-life is 2.4 h. The Activity in series [5] was 24%; in series [6], “Non-toxic”.

In series [1], `CCCCC1Cc2[nH]nc(-c3nnn[nH]3)c2C1` (stereo in doubt; 8d) came in with a bioavailability of 34%. This molecule yielded a clearance in series [2] of 21 mL/min/kg. Besides, in series [3], the Vd came to 0.7 L/kg. In series [4], this molecule had a half-life of 1.5 h.

For `O=C(O)c1cccnc1` [NIACIN], the bioavailability in series [1] was determined as 100%. The clearance in series [2] worked out at 145 mL/min/kg. Also, in series [3], the Vd came to 1 L/kg.
